These results are taken from publication PMC6886403, “Structure-Based and Molecular Modeling Studies for the Discovery of Cyclic Imides as Reversible Cruzain Inhibitors With Potent Anti-Trypanosoma cruzi Activity” (Frontiers in Chemistry, 2019).

Data set [1] has as its system T. cruzi intracellular amastigotes. Nature of the data set: T. cruzi intracellular amastigote assay (Tulahuen lacZ strain, CPRG readout). The data set is classed as cell-based, Trypanosoma cruzi. Particulars: for IC50: Trypanosoma cruzi, read-out: IC50 T. cruzi. As to the method: In vitro assays against T. cruzi were performed as described previously (Ferreira et al., [2014]). The T. cruzi Tulahuen strain, which expresses the E. coli β-galactosidase gene lacZ (Buckner et al., [1996]), was provided by Frederick S. Buckner (University of Washington, Seattle, WA). Stock solutions of the synthesized compounds were prepared in 100% DMSO. Epimastigotes were grown in liver infusion tryptone (LIT) supplemented with 10% fetal calf serum (FCS), penicillin and streptomycin (28°C). Metacyclogenesis from epimastigotes to trypomastigotes was induced by incubation of the epimastigotes in Grace's insect medium (Sigma-Aldrich, St. Louis, MO) supplemented with 10% FCS (28°C). HFF-1 human fibroblasts were seeded at 2 × 10^3/well (80 μL) in 96-well tissue culture plates in RPMI 1640 without phenol red supplemented with 10% FCS and incubated overnight (37°C, 5% CO2). Next, trypomastigotes were added at 1.0 × 10^4/well (20 μL), and the plates were incubated (37°C, 5% CO2). After 24 h, 3-fold serial dilutions (50 μL) of the synthesized compounds were added at concentrations ranging from 0.1 to 100 μM, and the plates were incubated (37°C, 5% CO2). Each compound concentration was evaluated in triplicate. All plates included BZ (Sigma-Aldrich) as a positive control and untreated wells (100% growth) as a negative control. After 120 h, 50 μL of chlorophenol red β-D-galactopyranoside (CPRG, Sigma-Aldrich) and IGEPAL CA-630 (Sigma-Aldrich) (0.1%) was added to each well. The absorbance was measured at 570 nm in an automated microplate reader, and the data were transferred to SigmaPlot 10.0 (Systat Software Inc.) for IC50 value calculation.

Data set [2] is described as follows: Cytotoxicity in HFF-1 cells (MTS tetrazolium assay). The data set is classed as cell-based. Particulars: human, HFF-1 fibroblasts, mean ± SD of two independent assays. The procedure:
(§1) The cytotoxicities of the compounds against HFF-1 fibroblasts and HepG2 hepatocytes were evaluated using the MTS tetrazolium assay (Promega, Madison, WI) (Barltrop et al., [1991]). HFF-1 fibroblasts were seeded at 2 × 10^3/well in 96-well culture plates in RPMI 1640 without phenol red supplemented with 10% FCS and incubated overnight (37°C, 5% CO2). HepG2 hepatocytes were seeded at 6 × 10^3/well in 96-well culture plates in DMEM (Cultilab, Campinas SP) supplemented with 10% FCS and incubated overnight (37°C, 5% CO2). The compounds were added in 3-fold serial dilutions, and the plates were incubated at 37°C with 5% CO2. Each compound concentration was evaluated in triplicate. All plates included doxorubicin (Sigma-Aldrich, St. Louis, MO) as a positive control and untreated wells (100% growth) as a negative control. After 72 h, 20 μL of MTS was added, and the plates were incubated for 4 h. The absorbance was measured at 490 nm in an automated microplate reader, and the data were transferred to SigmaPlot 10.0 (Systat Software Inc., Erkrath, Germany) for IC50 value calculation. The percent of nonviable cells was determined and compared to the negative control wells (100% growth).

Data set [3] is described as follows: Cytotoxicity in HepG2 cells (MTS tetrazolium assay). The class given is cell-based. As to conditions: human, HepG2 hepatocytes, mean ± SD of two independent assays. As to the method: as §1
On the set-up of data set [4]: method as in Pérez-Molina and Molina, 2018. As to conditions: patients under treatment; ref Pérez-Molina and Molina, 2018; cited from earlier work.
In the next data set the target is T1, cruzain (Trypanosoma cruzi, UniProt P25779).
T1 construct: inferred from Ni-NTA purification of the pro-enzyme; made in house; host or cells: Escherichia coli (M15)
Nature of the data set: Cruzain inhibition assay (cleavage of fluorogenic substrate Z-Phe-Arg-AMC). As to conditions: for inhibition at 100 µM: at 100 μM inhibitor, mean of three measurements, read-out: Percent inhibition against cruzain; for IC50: mean ± SD of three individual experiments, at least six inhibitor concentrations in triplicate, 1.5 nM cruzain, 5.0 μM Z-Phe-Arg-AMC, pH 5.5. The class given is biochemical. The procedure:
The catalytic activity of cruzain was monitored by cleavage of the fluorogenic substrate Z-Phe-Arg-aminomethyl coumarin (Z-Phe-Arg-AMC) as previously described (Ferreira et al., [2014]). The enzyme kinetics assays were performed in 0.1 M sodium acetate buffer (pH 5.5) with 5 mM dithiothreitol (DTT) and 0.01% Triton X-100. […] The enzyme reaction was monitored for 5 min at 30°C in 96-well black flat bottom plates, and the activity was calculated based on the initial rates compared with a control (DMSO). Wavelengths of 355 nm for excitation and 460 nm for emission were used. IC50 values were independently determined by determining rate measurements for at least six inhibitor concentrations, each evaluated in triplicate. To determine the mechanism of inhibition, eight substrate concentrations and four inhibitor concentrations were used, each in triplicate. The mechanism of inhibition was determined by Lineweaver-Burk plots. SigmaPlot 10.0 (Systat Software Inc., Erkrath, Germany) was used to determine the IC50 values.

The mark [5] stands for this setting: intracellular amastigotes, Tulahuen strain in HFF-1 fibroblasts, 120 h, mean ± SD of two experiments.

Read-outs that look alike come from different tables or passages of the source.

T1 sequence (P25779 123-337 limits assumed): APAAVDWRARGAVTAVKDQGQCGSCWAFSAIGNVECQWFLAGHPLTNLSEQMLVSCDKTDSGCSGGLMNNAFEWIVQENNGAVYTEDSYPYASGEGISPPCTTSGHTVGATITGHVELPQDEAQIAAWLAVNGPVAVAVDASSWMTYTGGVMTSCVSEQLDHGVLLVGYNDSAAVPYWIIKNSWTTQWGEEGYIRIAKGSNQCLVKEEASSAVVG

Consider `O=C(Cn1ccnc1[N+](=O)[O-])NCc1ccccc1` [BZ, benznidazole, reference compound], for which the IC50 in data set [1] (TULAHUEN, HFF-1, 120 h) was found to be 3 ± 0.6 µM. The CC50 at 72 h in data set [2] is greater than 100 µM; in data set [3] it was greater than 64 µM. Besides, the “patients with severe adverse effects” value in data set [4] is given as “up to 40%”.

As to `COc1ccc(NC(=O)COC(=O)[C@H](Cc2ccccc2)N2C(=O)C=CC2=O)cc1Cl` [10j, 2-((3-chloro-4-methoxyphenyl)amino)-2-oxoethyl (S)-2-(2,5-dioxo-2,5-dihydro-1H-pyrrol-1-yl)-3-phenylpropanoate], the inhibition at 100 µM at cruzain was found to be 97%. Also, the IC50 on cruzain came out at 0.6 ± 0.1 µM; in data set [1] (setting [5]), 1 ± 0.3 µM. The “increase in potency against cruzain relative to 3a” value at cruzain (more active than 3a) came to 4 fold. Moreover, in data set [1] (higher than that of BZ), the “trypanocidal activity relative to BZ” value came out at 3 fold. Besides, the figures for the CC50 at 72 h in data set [2] and in data set [3] were 15.7 ± 0.8 µM and 67 ± 8 µM, respectively.

For the compound `COc1ccc(NC(=O)COC(=O)[C@H](CC(C)C)N2C(=O)C=C(C)C2=O)cc1Cl` [10e, 2-((3-chloro-4-methoxyphenyl)amino)-2-oxoethyl (S)-4-methyl-2-(3-methyl-2,5-dioxo-2,5-dihydro-1H-pyrrol-1-yl)pentanoate], the inhibition at 100 µM on cruzain turned out to be 94%. Besides, the IC50 against cruzain stood at 2.5 ± 0.6 µM; in data set [1] (setting [5]), 1.2 ± 0.3 µM. Further, the CC50 at 72 h in data set [2] is 4.8 ± 0.5 µM; in data set [3] it was 5 ± 1 µM.

For the compound `COc1ccc(NC(=O)COC(=O)[C@H](CC(C)C)N2C(=O)CCC2=O)cc1Cl` [10d, 2-((3-chloro-4-methoxyphenyl)amino)-2-oxoethyl (S)-2-(2,5-dioxopyrrolidin-1-yl)-4-methylpentanoate], at cruzain, the inhibition at 100 µM worked out at 88%. For the same compound, the “decrease in potency against cruzain relative to 3a” value at cruzain (less active than 3a) is reported as 6 fold. Also, the figures for the IC50 (at cruzain; in data set [1] (setting [5])) were 12 ± 1 µM and 18.5 ± 3.1 µM, respectively. Besides, the CC50 at 72 h in data set [2] was greater than 100 µM; in data set [3], greater than 64 µM.

On to `CC(C)C[C@@H](C(=O)OCC(=O)Nc1ccc2ccccc2c1)N1C(=O)C2CC=CCC2C1=O` (stereo partly drawn) [3i, 2-(naphthalen-2-ylamino)-2-oxoethyl (2S)-2-(1,3-dioxo-1,3,3a,4,7,7a-hexahydro-2H-isoindol-2-yl)-4-methylpentanoate], for which the mechanism of inhibition entry at cruzain (Lineweaver-Burk plots, eight substrate and four inhibitor concentrations) was “competitive”. Further, at cruzain, the inhibition at 100 µM turned out to be 79%. In addition, the IC50 against cruzain amounted to 2.1 ± 1.3 µM; in data set [1] (setting [5]), 32.8 ± 4.9 µM. Moreover, the values for the CC50 at 72 h in data set [2] and in data set [3] were greater than 100 µM and 45 ± 8 µM, respectively.
